Results from publication PMC5663395, “Chemical Validation of Methionyl-tRNA Synthetase as a Druggable Target in Leishmania donovani” (ACS Infectious Diseases, 2017).

What was measured:
[1] = THP-1 cytotoxicity readout of intramacrophage assay; type: cell-based; conditions: human, Leishmania infected, PMA-differentiated THP-1 cells; read-out: THP-1 EC50 (toxicity)
Description: carried out as described above using 5%, 10% and 20% FBS in the media. To examine the effect of the methionine concentration on the potency of DDD806905 parasites were grown in the presence of drug and in the presence (or absence) of 20-fold excess methionine (0.3 g/l). IC50 curve fitting was undertaken in GraFit version 6.0 (Erithacus Software) using a four-parameter logistic dose-response curve (equation 6), with s the slope.
Leishmania Axenic Amastigote Assay
The Leishmania axenic amastigote assay was performed using the method published in Nühs et al 15.
Leishmania Intracellular Amastigote Assay
The intramacrophage Leishmania assay was performed using a modified version of the method described in De Rycker et al 16. […]
amphotericin B was included. Controls were as follows: columns 11 and 12: DMSO, columns 23 and 24: amphotericin B (final concentration 2 µM). 350 nl of compound was pre-dispensed into 384-well sterile intermediary plates. To the intermediary plates, 35 µl of THP-1 media was added and plates were shaken for >5 min to ensure complete mixing. […]
Amastigotes were incubated in the presence of THP-1 macrophages for 16 h. […] For each well, i) THP-1 cell count (cytotoxicity readout) and ii) average number of amastigotes per cell (potency readout) were […]

[2] = Plasma protein binding, equilibrium dialysis, mouse plasma; type: in vitro ADME; conditions: female, CD1, read-out: fu (unbound fraction)
Description: (§1) which gave the best fit to the data was then recorded as the logP. Using the logP and an experimentally determined pKa (see above), the software generated a lipophilicity plot showing changes in the logD with increasing pH and from this plot a logD7.3 and logD5.6 values were recorded.
(§2) Plasma Protein Binding Determination
(§3) A 96-well equilibrium dialysis apparatus was used to determine the free fraction in plasma for DDD806905 (HT Dialysis LLC, Gales Ferry, CT). Membranes (12-14 kDA cut-off) were conditioned in deionised water for 60 minutes, followed by conditioning in 80:20 deionised water:ethanol for 20 minutes, and then rinsed in isotonic buffer before use. Female CD1 mouse plasma or human plasma was removed from the freezer and allowed to thaw on the day of experiment. Thawed plasma was then centrifuged (Allegra X12-R, Beckman Coulter, USA), spiked with test compound (final concentration 10 μg/ml), and 150 μL aliquots (n=6 replicate determinations) loaded into the 96-well equilibrium dialysis plate. […] All samples were analysed by UPLC-MS/MS on a Quattro Premier XE Mass Spectrometer (Waters Corporation, USA).
(§4) The unbound fraction (fu) was determined as the ratio of the peak area in buffer to that in plasma. […]

[3] = Plasma protein binding, equilibrium dialysis, human plasma; type: in vitro ADME; conditions: read-out: fu (unbound fraction)
Description: as §1, §2, §3, §4

What does the source list for Cl.Cl.O=c1nc(NCCCNCc2cc3c(Cl)cc(Cl)cc3[nH]2)[nH]c2ccccc12 [DDD806905, 2-((3-(((4,6-dichloro-1H-indol-2-yl)methyl)amino)propyl)amino)quinazolin-4(1H)-one dihydrochloride]?
EC50 at 96 h [1]: 10 µM; fraction unbound at 5 h, 10 μg/ml [2]: 0.006; fraction unbound at 5 h, 10 μg/ml [3]: 0.007
